Patent US8962664B2, “Selective glycosidase inhibitors and uses thereof” (Simon Fraser University, priority 2006, dated 2015)
Entries after “also recorded” stand apart in the source; their conditions may differ.

How the values were obtained:
[1] = tested on: tau phosphorylation and NFT formation; assay: Reduction of NFT formation in transgenic P301L JNPL3 mice; format: in vivo; settings: oral, Group B NAG-Bt 100 then 1000 mg/kg/day; for protein O-GlcNAc modification in hippocampal brain sections: Group D NAG-AE 500 mg/kg/day weeks 16 to 32, anti-OGlcNAc staining; for tau phosphorylation and NFT formation in hippocampal brain sections: Group D NAG-AE 500 mg/kg/day weeks 16 to 32, anti-phospho Tau-Ser404 staining, vs untreated transgenic Group A
Description: Animal Dosing and Tissue Collection. Hemizygous transgenic female JNPL3 mice overexpressing human mutant tau protein (P301L) and wild type control mice were obtained from Taconic Farms, Inc. (model numbers 001638-T-F and 001638-W-F, respectively). The mice were 10-12 weeks of age at delivery, designated “week 1” of the study. In week 1, the mice were split into four groups: Group A (transgenic mice) received vehicle alone throughout the study; Group B (transgenic mice) received 100 mg/kg/day NAG-Bt in their food from week 1 to week 15, then were switched to 1000 mg/kg/day NAG-Bt in their drinking water from week 16 to week 32; Group D (transgenic mice) received vehicle alone from weeks 1 to 15, and then 500 mg/kg/day NAG-AE in their drinking water from weeks 16 to 32; Group E (wild-type) received vehicle alone throughout the study. In week 32, three animals per group were sacrificed and tissues were collected. Transgenic mice and controls were sacrificed using a CO2 chamber. About 45 seconds after they stopped breathing, they were perfused transcardially with 30 mL of 0.9% NaCl buffer followed by 30 mL of 4% paraformaldehyde (w/v in 1× phosphate-buffered saline, PBS, pH 7.4). The brains were then carefully dissected and post-fixed in 4% parformaldehyde before being cryoprotected in 20% sucrose (w/v in 1×PBS) for 24 hours at 4° C.
Cryostat sectioning. The brains were then mounted with optimal cutting temperature (OCT) medium (Tissue Tek) and sectioned sagittally on a Reichert-Jung Cryocut 1800 (Leica) using Feather microtome blades (Tissue Tek) at 50 μm and placed in 1×PBS for further processing. The cryostat temperature was set at −17° C. to −19° C.
Immunohistochemical Staining. Free-floating 50 μm sagittal sections (lateral about 0.6 mm from midline, Mouse Brain in Stereotaxic Coordinates, second edition, by George Paxinos and Leith B. J. Franklin) were permeabilized with 1×PBS containing 0.3% Triton X-100 for 15 min. After blocking with 10% goat serum and 2.5% BSA for 1 h at room temperature, sections were incubated with specific antibodies overnight at 4° C. (primary antibodies: anti-OGlcNAc, Covance; anti-phospho Tau-ser404, Santa Cruz). The sections then were washed three times with 0.3% Triton X-100 in PBS for 15 min each and incubated with specific secondary antibody conjugated with Cy3 or FITC for 1.5 h at room temperature in the dark. After several washes in 1×PBS, sections were mounted on slides and air-dried in the dark. Once dry, Vectashield Mounting Medium (Vector Laboratories, Inc.) was added to the slide before applying coverslips. Coverslips were sealed with clear nail enamel and slides were stored in dark at 4° C. For negative control staining, sections were incubated without primary antibodies.
Imaging. […]

[2] = Nine-month repeat dose toxicology study in mice: urinalysis; format: in vivo, wild-type JNPL3 mice; settings: mice dosed orally nine months, week 40, pooled urine; F2: NAG-Bt 100 then 1000 mg/kg/day (n = 2); F1: NAG-Bt 100 then NAG-AE 500 mg/kg/day (n = 3)
Description: (§1) The toxicological effects of repeated oral administration of (3aR,5R,6S,7R,7aR)-5-(hydroxymethyl)-2-propyl-5,6,7,7a-tetrahydro-3aH-pyrano[3,2-d]thiazole-6,7-diol (NAG-Bt) and (3aR,5R,6S,7R,7aR)-2-(ethylamino)-5-(hydroxymethyl)-5,6,7,7a-tetrahydro-3aH-pyrano[3,2-d]thiazole-6,7-diol (NAG-AE) to wild-type JNPL3 mice over nine months was measured. All animals were obtained from Taconic Farms, Inc. (model number 001638-W-F), and were 10-12 weeks of age at delivery, designated “week 1” of the study. In week 1, the mice were split into three groups: Group E received vehicle alone throughout the study; Group F1 received 100 mg/kg/day NAG-Bt in their food from week 1 to week 15, then were switched to 500 mg/kg/day NAG-AE in their drinking water from week 16 to week 40; Group F2 received 100 mg/kg/day NAG-Bt in their food from week 1 to week 15 then were switched to 1000 mg/kg/day NAG-Bt in their drinking water from week 16 to week 40. […] In week 40, blood and urine samples were collected from animals in each group; the urine samples for animals in each group were pooled prior to analysis, while the blood samples were analyzed individually.

[3] = Nine-month repeat dose toxicology study in mice: hematology (CBC) and serum chemistry; format: in vivo, wild-type JNPL3 mice; settings: oral, nine months
Description: as §1

[4] = Nine-month repeat dose toxicology study in mice: general observations; format: in vivo, wild-type JNPL3 mice; settings: oral, nine months, comparatively high levels
Description: as §1

Structure (SMILES)	protein O-GlcNAc modification in hippocampal brain sections [1]	tau phosphorylation and NFT formation in hippocampal brain sections [1]	Urine Appear [2]	Urine Bilirubin [2]	Urine Blood [2]	Urine Cocci [2]	Urine Color [2]	Urine Creatinine [2]	Urine Epith [2]	Urine Glucose [2]	Urine Ketones [2]	Urine Protein [2]	Urine RBC [2]	Urine Rods [2]	Urine Sp. Grv. [2]	Urine Urobil [2]	Urine WBC [2]	Urine pH [2]	changes in ALT, AST, or sorbitol dehydrogenase (liver toxicity) [3]	toxicological consequences of long-term dosing [4]
CCNC1=N[C@@H]2[C@@H](O)[C@H](O)[C@@H](CO)O[C@@H]2S1 [NAG-AE, (3aR,5R,6S,7R,7aR)-2-(ethylamino)-5-(hydroxymethyl)-5,6,7,7a-tetrahydro-3aH-pyrano[3,2-d]thiazole-6,7-diol]	dramatically elevated	dramatically reduced; also recorded: significantly decreased	Slcloudy	Neg	Neg	Neg	Yellow	3105.4	Few	Neg	Neg	Neg	Neg	Neg	1.039	Normal	Neg	6	no changes	no serious toxicological consequences
CCCC1=N[C@@H]2[C@@H](O)[C@H](O)[C@@H](CO)O[C@@H]2S1 [NAG-Bt, (3aR,5R,6S,7R,7aR)-5-(hydroxymethyl)-2-propyl-5,6,7,7a-tetrahydro-3aH-pyrano[3,2-d]thiazole-6,7-diol]	dramatically elevated	dramatically reduced; also recorded: significantly decreased	Clear	Neg	–	Neg	Yellow	7790.9	Few	Neg	Neg	Neg	Neg	Neg	1.05	Normal	Neg	5	no changes	no serious toxicological consequences
